The record followed here is patent US9809574B2, “Isoindoline or isoquinoline compounds, a process for their preparation and pharmaceutical compositions containing them” (LES LABORATOIRES SERVIER, priority 2013, dated 2017).

The subject of assay [1] is RS4; 11 leukaemia cell line. The assay can be described thus: In vitro cytotoxicity, Microculture Tetrazolium Assay (MTT). Particulars: Homo sapiens, 11 cells exposed for 48 hours. The format is cell-based. As to the method: The cytotoxicity studies were carried out on the RS4; 11 leukaemia cell line and on H146 small Cell Lung Carcinoma cell line. The cells are distributed onto microplates and exposed to the test compounds for 48 hours. The cell viability is then quantified by a colorimetric assay, the Microculture Tetrazolium Assay (Cancer Res., 1987, 47, 939-942).

A further assay deals with Bcl-2 protein (histag-Bcl-2, UniProtKB P10415) (Homo sapiens (Human), UniProt P10415). The assay can be described thus: Inhibition of Bcl-2 by the fluorescence polarisation technique. The format is binding. Particulars: fluorescence polarisation test; incubation for 2 hours; read-out: IC50 (nM) Bcl-2 FP. From the text:
For partial inhibitors, the percentage fluorescence polarisation inhibition for a given concentration of the test compound is indicated.

Chain of Bcl-2 protein (P10415 whole entry): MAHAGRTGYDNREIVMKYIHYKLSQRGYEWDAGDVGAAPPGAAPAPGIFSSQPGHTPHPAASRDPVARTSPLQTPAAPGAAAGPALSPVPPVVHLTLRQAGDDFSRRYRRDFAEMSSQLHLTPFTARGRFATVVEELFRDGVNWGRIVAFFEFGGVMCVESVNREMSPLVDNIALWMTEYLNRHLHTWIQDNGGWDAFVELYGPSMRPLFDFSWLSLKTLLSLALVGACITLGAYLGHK

What is called IC50 is the concentration that gives 50% inhibition. Regarding `Cc1c(C(=O)N(C)c2ccc(O)cc2)cc(-c2cc3c(cc2C(=O)N2Cc4ccccc4C[C@H]2CN(C)C)CN(C(=O)C(F)(F)F)CC3)n1C` [Example 782, 5-{7-[(3S)-3-[(Dimethylamino)methyl]-1,2,3,4-tetrahydroisoquinoline-2-carbonyl]-2-(trifluoroacetyl)-1,2,3,4-tetrahydroisoquinolin-6-yl}-N-(4-hydroxyphenyl)-N,1,2-trimethyl-1H-pyrrole-3-carboxamide], the figures for the half-maximal inhibitory concentration (IC50) (in assay [1]; on Bcl-2 protein) were 112 nM and 51 nM, respectively.

Regarding `Cc1c(C(=O)N(C)c2ccc(O)cc2)cc(-c2cc3c(cc2C(=O)N2Cc4ccccc4C[C@H]2CN2CCN(C)CC2)CN(C(=O)C(F)(F)F)CC3)n1C` [Example 783, N-(4-Hydroxyphenyl)-N,1,2-trimethyl-5-{7-[(3S)-3-[(4-methylpiperazin-1-yl)methyl]-1,2,3,4-tetrahydroisoquinoline-2-carbonyl]-2-(trifluoroacetyl)-1,2,3,4-tetrahydroisoquinolin-6-yl}-1H-pyrrole-3-carboxamide], the IC50 in assay [1] was above 150 nM; at Bcl-2 protein it was 23 nM.

Regarding `Cc1c(C(=O)N(C)c2ccc(O)cc2)cc(-c2cc3c(cc2C(=O)N2Cc4ccccc4C[C@H]2CN2CCOCC2)CN(C(=O)Oc2ccc(Br)cc2)CC3)n1C` [Example 784, 4-Bromophenyl 6-{4-[(4-hydroxyphenyl)(methyl)carbamoyl]-1,5-dimethyl-1H-pyrrol-2-yl}-7-[(3S)-3-(morpholin-4-ylmethyl)-1,2,3,4-tetrahydroisoquinoline-2-carbonyl]-1,2,3,4-tetrahydroisoquinoline-2-carboxylate], the IC50 in assay [1] worked out at 2.9 nM; on Bcl-2 protein, 5.1 nM.

Consider `Cc1ccc(OC(=O)N2CCc3cc(-c4cc(C(=O)N(C)c5ccccc5)c(C)n4C)c(C(=O)N4Cc5ccccc5C[C@H]4C)cc3C2)cc1` [Example 785, 4-Methylphenyl 6-{1,5-dimethyl-4-[methyl(phenyl)carbamoyl]-1H-pyrrol-2-yl}-7-[(3R)-3-methyl-1,2,3,4-tetrahydroisoquinoline-2-carbonyl]-1,2,3,4-tetrahydroisoquinoline-2-carboxylate], for which the IC50 in assay [1] was 7.8 nM; on Bcl-2 protein, 3.3 nM.

For the molecule `Cc1c(C(=O)N(C)c2ccccc2)cc(-c2cc3c(cc2C(=O)N2Cc4ccccc4C[C@H]2C)CN(C(=O)Oc2ccc(C#N)cc2)CC3)n1C` [Example 786, 4-Cyanophenyl 6-{1,5-dimethyl-4-[methyl(phenyl)carbamoyl]-1H-pyrrol-2-yl}-7-[(3R)-3-methyl-1,2,3,4-tetrahydroisoquinoline-2-carbonyl]-1,2,3,4-tetrahydroisoquinoline-2-carboxylate], the IC50 in assay [1] stood at 24 nM; on Bcl-2 protein, 8.4 nM.

As for `Cc1c(C(=O)N(C)c2ccccc2)cc(-c2cc3c(cc2C(=O)N2Cc4ccccc4C[C@H]2C)CN(C(=O)Oc2cccc(CCC(=O)N(C)C)c2)CC3)n1C` [Example 787, 3-[2-(Dimethylcarbamoyl)ethyl]phenyl 6-{1,5-dimethyl-4-[methyl(phenyl)carbamoyl]-1H-pyrrol-2-yl}-7-[(3R)-3-methyl-1,2,3,4-tetrahydroisoquinoline-2-carbonyl]-1,2,3,4-tetrahydroisoquinoline-2-carboxylate], the results for the IC50 (in assay [1]; at Bcl-2 protein) were 6.2 nM and 5 nM, respectively.

For the molecule `Cc1c(C(=O)N(C)c2ccccc2)cc(-c2cc3c(cc2C(=O)N2Cc4ccccc4C[C@H]2C)CN(C(=O)Oc2ccc(CCC(=O)N(C)C)cc2)CC3)n1C` [Example 788, 4-[2-(Dimethylcarbamoyl)ethyl]phenyl 6-{1,5-dimethyl-4-[methyl(phenyl)carbamoyl]-1H-pyrrol-2-yl}-7-[(3R)-3-methyl-1,2,3,4-tetrahydroisoquinoline-2-carbonyl]-1,2,3,4-tetrahydroisoquinoline-2-carboxylate], the IC50 was found to be 14 nM in assay [1] and 4.4 nM at Bcl-2 protein.

With `Cc1c(C(=O)N(C)c2ccccc2)cc(-c2cc3c(cc2C(=O)N2Cc4ccccc4C[C@H]2C)CN(C(=O)Oc2ccc4[nH]ccc4c2)CC3)n1C` [Example 789, 1H-Indol-5-yl 6-{1,5-dimethyl-4-[methyl(phenyl)carbamoyl]-1H-pyrrol-2-yl}-7-[(3R)-3-methyl-1,2,3,4-tetrahydroisoquinoline-2-carbonyl]-1,2,3,4-tetrahydroisoquinoline-2-carboxylate], the IC50 was 14 nM in assay [1] and 8.9 nM at Bcl-2 protein.

For the molecule `Cc1c(C(=O)N(C)c2ccc(O)cc2)cc(-c2cc3c(cc2C(=O)N2Cc4ccccc4C[C@H]2C)CN(C(=O)OC2CCCCC2)CC3)n1C` [Example 790, Cyclohexyl 6-{4-[(4-hydroxyphenyl)(methyl)carbamoyl]-1,5-dimethyl-1H-pyrrol-2-yl}-7-[(3R)-3-methyl-1,2,3,4-tetrahydroisoquinoline-2-carbonyl]-1,2,3,4-tetrahydroisoquinoline-2-carboxylate], the figures for the IC50 (in assay [1]; on Bcl-2 protein) were 20 nM and 3.4 nM, respectively.

For `Cc1c(C(=O)N(C)c2ccc(O)cc2)cc(-c2cc3c(cc2C(=O)N2Cc4ccccc4C[C@H]2CN2CCOCC2)CN(C(=O)OC2CCCCC2)CC3)n1C` [Example 791, Cyclohexyl 6-{4-[(4-hydroxyphenyl)(methyl)carbamoyl]-1,5-dimethyl-1H-pyrrol-2-yl}-7-[(3S)-3-(morpholin-4-ylmethyl)-1,2,3,4-tetrahydroisoquinoline-2-carbonyl]-1,2,3,4-tetrahydroisoquinoline-2-carboxylate], the IC50 is 54 nM in assay [1] and 2.8 nM on Bcl-2 protein.

In the case of `Cc1c(C(=O)N(C)c2ccc(O)cc2)cc(-c2cc3c(cc2C(=O)N2Cc4ccccc4C[C@H]2C)CN(C(=O)NC2CCCCC2)CC3)n1C` [Example 792, N-Cyclohexyl-6-{4-[(4-hydroxyphenyl)(methyl)carbamoyl]-1,5-dimethyl-1H-pyrrol-2-yl}-7-[(3R)-3-methyl-1,2,3,4-tetrahydroisoquinoline-2-carbonyl]-1,2,3,4-tetrahydroisoquinoline-2-carboxamide], the IC50 in assay [1] was 21 nM; on Bcl-2 protein, 4.6 nM.

As for `Cc1c(C(=O)N(C)c2ccc(O)cc2)cc(-c2cc3c(cc2C(=O)N2Cc4ccccc4C[C@H]2CN2CCOCC2)CN(C(=O)NC2CCCCC2)CC3)n1C` [Example 793, N-Cyclohexyl-6-{4-[(4-hydroxyphenyl)(methyl)carbamoyl]-1,5-dimethyl-1H-pyrrol-2-yl}-7-[(3S)-3-(morpholin-4-ylmethyl)-1,2,3,4-tetrahydroisoquinoline-2-carbonyl]-1,2,3,4-tetrahydroisoquinoline-2-carboxamide], the IC50 in assay [1] was 92 nM; at Bcl-2 protein, 4.4 nM.

With `Cc1c(C(=O)N(C)c2ccc(O)cc2)cc(-c2cc3c(cc2C(=O)N2Cc4ccccc4C[C@H]2CN2CCOCC2)CN(C(=O)CC2CCCCC2)CC3)n1C` [Example 794, 5-[2-(2-Cyclohexylacetyl)-7-[(3S)-3-(morpholin-4-ylmethyl)-1,2,3,4-tetrahydroisoquinoline-2-carbonyl]-1,2,3,4-tetrahydroisoquinolin-6-yl]-N-(4-hydroxyphenyl)-N,1,2-trimethyl-1H-pyrrole-3-carboxamide], the IC50 in assay [1] came out at 70 nM; at Bcl-2 protein it was 4.6 nM.

On to `Cc1c(C(=O)N(C)c2ccc(O)cc2)cc(-c2cc3c(cc2C(=O)N2Cc4ccccc4C[C@H]2C)CN(C(=O)CC2CCCCC2)CC3)n1C` [Example 795, 5-[2-(2-Cyclohexylacetyl)-7-[(3R)-3-methyl-1,2,3,4-tetrahydroisoquinoline-2-carbonyl]-1,2,3,4-tetrahydroisoquinolin-6-yl]-N-(4-hydroxyphenyl)-N,1,2-trimethyl-1H-pyrrole-3-carboxamide], for which the IC50 in assay [1] amounted to 32 nM; on Bcl-2 protein it was 5.3 nM.

As for `Cc1c(C(=O)N(C)c2ccc(O)cc2)cc(-c2cc3c(cc2C(=O)N2Cc4ccccc4C[C@H]2CN2CCOCC2)CN(C(=O)OC2CCCC2)CC3)n1C` [Example 796, Cyclopentyl 6-{4-[(4-hydroxyphenyl)(methyl)carbamoyl]-1,5-dimethyl-1H-pyrrol-2-yl}-7-[(3S)-3-(morpholin-4-ylmethyl)-1,2,3,4-tetrahydroisoquinoline-2-carbonyl]-1,2,3,4-tetrahydroisoquinoline-2-carboxylate], the IC50 was 48 nM in assay [1] and 6.2 nM on Bcl-2 protein.

Consider `Cc1c(C(=O)N(C)c2ccc(O)cc2)cc(-c2cc3c(cc2C(=O)N2Cc4ccccc4C[C@H]2CN2CCOCC2)CN(C(=O)O[C@@H]2C[C@H](C)CC[C@H]2C(C)C)CC3)n1C` [Example 797, (1R,2S,5R)-5-Methyl-2-(propan-2-yl)cyclohexyl 6-{4-[(4-hydroxyphenyl)(methyl)carbamoyl]-1,5-dimethyl-1H-pyrrol-2-yl}-7-[(3S)-3-(morpholin-4-ylmethyl)-1,2,3,4-tetrahydroisoquinoline-2-carbonyl]-1,2,3,4-tetrahydroisoquinoline-2-carboxylate], for which the IC50 in assay [1] was found to be 125 nM; on Bcl-2 protein, 21 nM.

As to `Cc1c(C(=O)N(C)c2ccc(O)cc2)cc(-c2cc3c(cc2C(=O)N2Cc4ccccc4C[C@H]2CN2CCOCC2)CN(C(=O)CC24CC5CC(CC(C5)C2)C4)CC3)n1C` [Example 798, 5-{2-[2-(Adamantan-1-yl)acetyl]-7-[(3S)-3-(morpholin-4-ylmethyl)-1,2,3,4-tetrahydroisoquinoline-2-carbonyl]-1,2,3,4-tetrahydroisoquinolin-6-yl}-N-(4-hydroxyphenyl)-N,1,2-trimethyl-1H-pyrrole-3-carboxamide], the IC50 in assay [1] turned out to be 76 nM; on Bcl-2 protein, 9.1 nM.

As for `Cc1c(C(=O)N(C)c2ccc(O)cc2)cc(-c2cc3c(cc2C(=O)N2Cc4ccccc4C[C@H]2C)CN(C(=O)CN2CCCCC2)CC3)n1C` [Example 799, N-(4-Hydroxyphenyl)-N,1,2-trimethyl-5-{7-[(3R)-3-methyl-1,2,3,4-tetrahydroisoquinoline-2-carbonyl]-2-[2-(piperidin-1-yl)acetyl]-1,2,3,4-tetrahydroisoquinolin-6-yl}-1H-pyrrole-3-carboxamide], the IC50 in assay [1] is above 150 nM; at Bcl-2 protein, 15 nM.
